Results as given in patent publication EP0058890A1, “Antithrombotic compounds” (THE WELLCOME FOUNDATION LIMITED, priority 1981, dated 1982).
Where two headings read alike, the source gives them in different places.

Assays:
platelets [1] = assay: Ex vivo platelet aggregation after oral dosing, arachidonate and collagen (method of Born), rat; assay type: in vivo; conditions: read-out: dose required to inhibit aggregation rate by 50% (ED50)
Procedure: (§1) b. Ex vivo studies: The aggregation of platelets taken from animals dosed by the oral route with Compound II is inhibited when tested with arachidonate and collagen by the method of Born ((1962) Nature 194, 927, 929). The dose required to inhibit aggregation rate by 50% (ED50) at 1 hour was 5 mg/kg and 10 mg/kg in the guinea pig and rat, respectively. By comparison, the ED50 for aspirin in the guinea pig was 30 mg/kg, while the ED50 for aspirin in the rat was 10 mg/kg. The ED50 for indomethacin was 10 mg/kg and 5 mg/kg in the guinea pig and rat, respectively. In the dog, 10 mg/kg p.o. was an ED50 for as long as 6 hr.

gastric erosion = assay type: in vivo; conditions: guinea pig
gastric damage = assay type: in vivo; conditions: rat
dog platelets = assay: Ex vivo platelet aggregation after oral dosing, dog; assay type: in vivo; conditions: Canis lupus familiaris, for as long as 6 hr
Procedure: as §1

adjuvant arthritis = assay: Adjuvant Arthritis Assay (Chronic); assay type: in vivo, rat; conditions: po, 336 h, read-out: ED50, development of adjuvant arthritis
[2] = system: subplantar injection of trypsin; assay: Modified Trypsin Hyperalgesic Assay; assay type: in vivo; conditions: drug administration 15 minutes before subplantar trypsin
platelets [3] = assay: Ex vivo platelet aggregation after oral dosing, arachidonate and collagen (method of Born), guinea pig; assay type: in vivo; conditions: Cavia porcellus, read-out: dose required to inhibit aggregation rate by 50% (ED50)
Procedure: as §1

exudate fluid volume = assay: Carrageenin Pleurisy Assay (Acute); assay type: in vivo, rat; conditions: 3 h, read-out: 3 hr. ED50 against exudate fluid volume
Excerpt: a. […] In this assay, the 3 hr.

[4] = system: stasis-induced jugular vein thrombosis; assay: Protection against stasis-induced jugular vein thrombosis; assay type: in vivo; conditions: guinea pig; given 1 hour prior to ligation
Procedure: b. Protection against stasis-induced jugular vein thrombosis: When a 1 cm length of guinea pig jugular vein is ligated in situ, a thrombus forms within 30 min. Six mg/kg p.o. of either Compound II or aspirin given 1 hour prior to ligation protected 50% of the animals from thrombosis.

[5] = system: Yeast-induced hyperthermia; assay: Yeast-Induced Hyperthermia Assay; assay type: in vivo, rat

Row | Structure (SMILES) | ED50 (platelets [1]; rat, oral route, at 1 hour, arachidonate and collagen) | gastric damage (gastric erosion; in vivo, po, 100 mg/kg/day) | gastric damage (gastric damage; in vivo, po, 75 mg/kg/day) | gastric damage (gastric damage; in vivo, po, 150 mg/kg) | ED50 (dog platelets) | ED50 (adjuvant arthritis; rat, by gavage for 14 days) | ED50 ([2]; read-out: ED50) | ED50 (platelets [3]; guinea pig, oral route, at 1 hour, arachidonate and collagen) | ED50 (exudate fluid volume; rat, oral route) | ED50 (platelets [1]; Rattus norvegicus, po, 1 h) | gastric damage (gastric erosion; 100 mg/kg/day p.o. for 3 days) | gastric damage (gastric damage; single oral dose of 30 mg/kg) | dose that protected 50% of the animals from thrombosis [4] | ED50 (adjuvant arthritis; Rattus norvegicus) | ED50 ([5]; Rattus norvegicus, po) | hypothermia ([5]; rat, for Compound II 3-4 hours after dosing) | ED50 [2] | ED50 (platelets [3]; po, 1 h) | ED50 (exudate fluid volume; Rattus norvegicus, po) | gastric damage (gastric damage; single oral dose of 5 mg/kg)
1 | CN(C)CCOc1ccccc1-c1nc(-c2ccccc2)c(-c2ccccc2)[nH]1 [Compound II] | 10 mg/kg | very slight gastric erosion | does not produce gastric damage | does not produce gastric damage | 10 mg/kg | 294 mg/kg | ~50 mg/kg | 5 mg/kg | 37 mg/kg |  |  |  |  |  |  |  |  |  |  | 
2 | CC(=O)Oc1ccccc1C(=O)O [aspirin] |  |  |  |  |  |  |  |  |  | 10 mg/kg | severe ulceration and hemorrhage | produces ulcers and hemorrhages | Six | 175 mg/kg | 50 mg/kg | does not produce hypothermia | inactive | 30 mg/kg | 28 mg/kg | 
3 | COc1ccc2c(c1)c(CC(=O)O)c(C)n2C(=O)c1ccc(Cl)cc1 [indomethacin] |  |  |  |  |  |  |  |  |  | 5 mg/kg |  |  |  | 1 mg/kg |  |  | inactive | 10 mg/kg | 2 mg/kg | produces ulcers
